The target in experiment [1] is T1, recombinant human GBA1 (rhGBA1, Cerezyme) (Homo sapiens, UniProt P04062, R534H).
T1 construct: purchased Cerezyme
T1 sequence (P04062 40-536 R534H): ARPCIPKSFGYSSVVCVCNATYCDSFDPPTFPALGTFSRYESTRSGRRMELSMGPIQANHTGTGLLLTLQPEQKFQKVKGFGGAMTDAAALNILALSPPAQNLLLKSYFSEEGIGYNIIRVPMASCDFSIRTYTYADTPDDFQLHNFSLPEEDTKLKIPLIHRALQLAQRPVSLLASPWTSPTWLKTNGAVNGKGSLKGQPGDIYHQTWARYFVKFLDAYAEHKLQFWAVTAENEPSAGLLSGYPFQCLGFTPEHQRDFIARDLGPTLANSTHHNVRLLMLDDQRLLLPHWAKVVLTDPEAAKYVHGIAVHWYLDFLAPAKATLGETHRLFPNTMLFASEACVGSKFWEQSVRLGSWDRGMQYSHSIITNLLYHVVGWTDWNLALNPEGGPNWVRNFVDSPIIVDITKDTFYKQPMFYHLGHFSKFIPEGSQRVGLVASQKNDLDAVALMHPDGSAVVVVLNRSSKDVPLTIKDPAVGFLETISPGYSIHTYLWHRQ
Kind of experiment: In vitro rhGBA1 inhibition, 4-MU-β-D-glucopyranoside hydrolysis. The experiment is classed as biochemical. As to conditions: Cerezyme 14 nM, 3.7 mM 4-MU-β-D-glucopyranoside, McIlvaine pH 5.2, 30 min pre-incubation 37 °C + 30 min, mean ± SD from 3 technical triplicates; for IC50: SD. As to the method:
Based on the pull-down validation, a set of eight cyclic peptides (L1, L2, L4, L6, D1, D8, D12 and D13) were identified, synthesized, and evaluated for their inhibitory potency against recombinant human GBA1 (rhGBA1, Cerezyme®) and their selectivity over human β-glucosidases GBA2 and GBA3. Half-maximum inhibitory concentration (IC50) values for β-glucosidases were determined in vitro by measuring hydrolysis of 4-methylumbelliferyl-β-D-glucopyranoside (4-MU-β-D-Glu) fluorogenic substrate. […]
Pure product fractions were pooled, lyophilized, and dissolved again in DMSO before concentration was determined by A280 using a sample diluted in phosphate buffer at pH 7.4 and extinction coefficients determined from the sequence using the Expasy ProtParam online tool (https://web.expasy.org/protparam/). […]
2.5. In vitro IC50 and Ki measurements
For GBA1, IC50 values were determined using the recombinant human GBA1 (rhGBA1, Cerezyme) following described procedures.4 Enzyme activity was measured using 3.7 mM 4-methylumbeliferone (4MU)-β-D-glucopyranoside in 150 mM McIlvaine buffer pH 5.2 supplemented with 0.1% bovine serum albumin (BSA) (w/v), 0.1% Triton X-100 (v/v), and 0.2% sodium taurocholate (w/v). Varying concentrations of inhibitor (12.5 µL) were incubated with 12.5 µL of enzyme (final concentration 14 nM) at 37 °C for 30 min. Following this, 100 µL of 4MU substrate was added and the samples were again incubated at 37 °C for 30 min. The reaction was quenched using excess 1 M NaOH-glycine (200 µL, pH 10.3) and 4MU fluorescence was measured using a LS55 fluorimeter (λEx 366 nm and λEm 445 […]
30 min at 37 °C (12.5 µL) and subsequently incubated with the tested ligands at a range of concentrations for 30 min at 37 °C (12.5 µL), after which 100 µL 4MU-β-D-glucopyranoside was added for a final incubation of 30 min at 37 °C, quenched with 200 µL 1 M NaOH-glycine (pH 10.3) and fluorescence was measured. IC50 values were calculated using GraphPad Prism version 8.

The target of experiment [2] is T1, recombinant human GBA1 (rhGBA1, Cerezyme). Kind of experiment: rhGBA1 Ki / kinetic studies with varied 4-MU substrate. The experiment is classed as biochemical. As to conditions: 4MU substrate 0.05-5 mM, no pre-incubation, mean ± SD from 3 technical triplicates. As to the method:
Based on the pull-down validation, a set of eight cyclic peptides (L1, L2, L4, L6, D1, D8, D12 and D13) were identified, synthesized, and evaluated for their inhibitory potency against recombinant human GBA1 (rhGBA1, Cerezyme®) and their selectivity over human β-glucosidases GBA2 and GBA3. Half-maximum inhibitory concentration (IC50) values for β-glucosidases were determined in vitro by measuring hydrolysis of 4-methylumbelliferyl-β-D-glucopyranoside (4-MU-β-D-Glu) fluorogenic substrate.
Selective Cyclic Peptide Ligands as GBA1 Stabilizers Katzy et al.
Figure S4. Inhibitory constant (Ki) values using increasing concentrations of 4-MU-beta-glucoside as fluorogenic substrate. Enzyme activity (nmol h-1 mg-1) versus MU substrate concentrations is plotted (See Table 1 for Ki values) for inhibitors L2, L4, L6, D1, D8, and D12, and corresponding Lineweaver Burk plots are shown on the right.
(1 picture or pasted object on this page, not shown here)
GBA1 Ki values were determined using the same incubation times and buffers as described above following a previously described protocol.6 4MU-β-D-glucopyranoside concentration was varied […]
between 0.05 mM and 5 mM. […]
2.8. Thermostability assays in rhGBA (Cerezyme)
Varying concentrations of peptides were incubated with 1 µM rhGBA1 in 20 mM HEPES pH 7.0 with 100 mM NaCl, with a final DMSO concentration of 0.5 %, for 2 hours at room temperature. Melting

Experimental findings from paper PMC11808397, “Development of selective nanomolar cyclic peptide ligands as GBA1 enzyme stabilisers” (RSC Chemical Biology, 2025) are described below.

Positions of bridges follow the written chain, without caps; N, C: chain ends. Non-standard residues stand in square brackets, D forms with d. Residues, ends and D or L forms follow the SMILES beside them.

Take `CC[C@H](C)[C@H](NC(=O)[C@H](CC(C)C)NC(=O)[C@H](Cc1ccc(O)cc1)NC(=O)[C@H](Cc1ccc(O)cc1)NC(=O)[C@@H]1CSCC(=O)N[C@H](Cc2ccc(O)cc2)C(=O)N[C@@H](CCCNC(=N)N)C(=O)N[C@@H](C(C)C)C(=O)N1)C(=O)N[C@H](C(=O)N[C@H](C(=O)N[C@@H](CC(C)C)C(=O)N[C@@H](CC(=O)O)C(=O)N[C@@H](CS)C(N)=O)C(C)C)[C@@H](C)O` [D1] ({CH2CO}-[dY]RVCYYLITVLDC-NH2; thioether N-4): in experiment [1], the “rhGBA1 IC50” value is “low nanomolar” and the IC50 worked out at 5 ± 3 nM. Besides, the inhibition constant (Ki) in experiment [2] worked out at 0.9 ± 0.1 nM.
As to `CC(C)C[C@H](NC(=O)[C@@H](NC(=O)[C@H](CCCNC(=N)N)NC(=O)[C@@H]1CSCC(=O)N[C@H](Cc2ccc(O)cc2)C(=O)N[C@@H]([C@@H](C)O)C(=O)N2CCC[C@H]2C(=O)NCC(=O)N[C@@H](Cc2ccc(O)cc2)C(=O)N[C@@H](C(C)C)C(=O)N[C@@H](Cc2ccc(O)cc2)C(=O)N1)C(C)C)C(=O)N[C@@H](CCCCN)C(=O)N[C@@H](Cc1ccc(O)cc1)C(=O)N[C@@H](CS)C(N)=O` [D8] ({CH2CO}-[dY]TPGYVYCRVLKYC-NH2; thioether N-8), the IC50 in experiment [1] is 12 ± 11 nM. The Ki in experiment [2] was 13 ± 4 nM.
For the molecule `CC(C)C[C@@H]1NC(=O)CNC(=O)[C@H](CC(C)C)NC(=O)[C@@H](Cc2ccc(O)cc2)NC(=O)CSC[C@@H](C(N)=O)NC(=O)[C@H](CO)NC(=O)[C@H](CCCCN)NC(=O)[C@H](CC(C)C)NC(=O)[C@H](Cc2ccccc2)NC(=O)[C@H](CCCNC(=N)N)NC(=O)[C@H](Cc2ccc(O)cc2)NC(=O)[C@H](Cc2c[nH]c3ccccc23)NC1=O` [D12] ({CH2CO}-[dY]LGLWYRFLKSC-NH2; thioether N-12), in experiment [1], the “rhGBA1 IC50” value is listed as “low nanomolar” and the IC50 came to 4 ± 4 nM. Also, in experiment [2], the inhibitory constant (Ki) amounted to 1 ± 0.4 nM.
For `CC[C@H](C)[C@@H]1NC(=O)[C@H](CO)NC(=O)[C@H](CS)NC(=O)CNC(=O)CNC(=O)[C@H](CC(C)C)NC(=O)[C@H](Cc2ccc(O)cc2)NC(=O)[C@H](C(C)C)NC(=O)[C@H](CC(C)C)NC(=O)[C@H](CCCNC(=N)N)NC(=O)[C@@H]2CCCN2C(=O)[C@H](Cc2ccc(O)cc2)NC(=O)CSC[C@@H](C(N)=O)NC(=O)[C@H](CCC(=O)O)NC(=O)[C@H](CC(C)C)NC(=O)[C@H](CC(C)C)NC1=O` [L1] ({CH2CO}-YPRLVYLGGCSILLEC-NH2; thioether N-16), in experiment [1], the “rhGBA1 IC50” value is “high micromolar range” and the IC50 stood at 138000 ± 55800 nM.
In the case of `CC[C@H](C)[C@H](NC(=O)[C@H](CCCNC(=N)N)NC(=O)[C@@H]1CSCC(=O)N[C@@H](Cc2ccc(O)cc2)C(=O)N[C@@H](C)C(=O)N[C@@H](Cc2ccc(O)cc2)C(=O)N[C@@H](Cc2c[nH]c3ccccc23)C(=O)N[C@@H](Cc2c[nH]c3ccccc23)C(=O)N[C@@H](CC(C)C)C(=O)N1)C(=O)N1CCC[C@H]1C(=O)N[C@@H](Cc1c[nH]c2ccccc12)C(=O)N[C@@H](CC(C)C)C(=O)N[C@@H](CO)C(=O)N[C@H](C(N)=O)C(C)C` [L2] ({CH2CO}-YAYWWLCRIPWLSV-NH2; thioether N-7), in experiment [1], the IC50 amounted to 340 ± 160 nM. For the same molecule, the Ki in experiment [2] is 42 ± 7 nM.
In the case of `CC(C)C[C@@H]1NC(=O)CNC(=O)[C@H](Cc2ccccc2)NC(=O)[C@H](CC(C)C)NC(=O)[C@@H]2CCCN2C(=O)[C@H](Cc2ccc(O)cc2)NC(=O)CSC[C@@H](C(=O)N2CCC[C@H]2C(=O)N[C@@H](CC(N)=O)C(=O)N[C@@H](Cc2c[nH]c3ccccc23)C(=O)N[C@@H](Cc2ccccc2)C(=O)N2CCC[C@H]2C(=O)N[C@@H](Cc2ccc(O)cc2)C(=O)N[C@@H](CCC(N)=O)C(=O)N[C@@H](CS)C(N)=O)NC(=O)[C@H](CO)NC(=O)[C@H](Cc2ccccc2)NC1=O` [L4] ({CH2CO}-YPLFGLFSCPNWFPYQC-NH2; thioether N-9), in experiment [1], the “rhGBA1 IC50” value is listed as “low nanomolar” and the IC50 came out at 9 ± 4 nM. The Ki in experiment [2] was 2 ± 1 nM.
As to `CC[C@H](C)[C@@H]1NC(=O)[C@H](Cc2ccc(O)cc2)NC(=O)CSC[C@@H](C(N)=O)NC(=O)[C@H](Cc2c[nH]c3ccccc23)NC(=O)[C@H](CCC(N)=O)NC(=O)[C@H]([C@@H](C)CC)NC(=O)[C@H]([C@@H](C)CC)NC(=O)[C@@H]2CCCN2C(=O)[C@H](C(C)C)NC(=O)[C@H](Cc2ccc(O)cc2)NC(=O)[C@H](Cc2c[nH]c3ccccc23)NC(=O)[C@H](CO)NC1=O` [L6] ({CH2CO}-YISWYVPIIQWC-NH2; thioether N-12), the IC50 in experiment [1] turned out to be 5660 ± 2040 nM. Besides, in experiment [2], the Ki is 1340 ± 203 nM.

The term IC50 denotes the concentration needed to halve the response being measured. The Ki is a dissociation constant, usually derived from enzyme kinetics or from competition with a known ligand.
